US20100099561A1, “HETEROBICYCLIC ALKYLTHIO-BRIDGED ISOXAZOLINES” (E.I. DU PONT DE NEMOURS AND COMPANY, priority 2008, published 2010)

Assays:
Assay type in all cases: in vivo
corn (Zea mays) [1] = test: Test A preemergence, corn; conditions: 0 to 100 scale (0 no effect, 100 complete control)
In short: (§1)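 Greenhouse pre/postemergence test, loam–sand soil. Postemergence plants one- to two-leaf, 2–10 cm. Visual injury rating ~10 d after treatment, 0–100 vs untreated.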

[2] = system: bermudagrass (Cynodon dactylon); test: Test B preemergence, bermudagrass; conditions: scale 0 to 100
From the text: (§2) Seeds of plant species selected from blackgrass (Alopecurus myosuroides), downy bromegrass (Bromus tectorum), green foxtail (Setaria viridis), Italian ryegrass (Lolium multiflorum), wheat (Triticum aestivum), wild oat (Avena fatua), catchweed bedstraw (Galium aparine), bermudagrass (Cynodon dactylon), Surinam grass (Brachiaria decumbens), cocklebur (Xanthium strumarium), corn (Zea mays), large crabgrass (Digitaria sanguinalis), woolly cupgrass (Eriochloa villosa), giant foxtail (Setaria faberii), goosegrass (Eleusine indica), johnsongrass (Sorghum halepense), kochia (Kochia scoparia), lambsquarters (Chenopodium album), morningglory (Ipomoea coccinea), nightshade (eastern black nightshade, Solanum ptycanthum), yellow nutsedge (Cyperus esculentus), pigweed (Amaranthus retroflexus), ragweed (common ragweed, Ambrosia elatior), soybean (Glycine max), sunflower (common oilseed sunflower, Helianthus annuus), Russian thistle (Salsola kali), and velvetleaf (Abutilon theophrasti) were planted into a blend of loam soil and sand and treated preemergence with test compounds formulated in a non-phytotoxic solvent mixture which included a surfactant. Treated plants and controls were maintained in a greenhouse for 13 to 15 days, after which time all species were compared to controls and visually evaluated. Plant response ratings, summarized in Table B, are based on a scale of 0 to 100 where 0 is no effect and 100 is complete control. A dash (-) response means no test result.

[3] = system: velvetleaf (Abutilon theophrasti); test: Test A postemergence, velvetleaf; conditions: 0 to 100 scale (0 no effect, 100 complete control)
In short: as §1

[4] = system: barnyardgrass (Echinochloa crus-galli); test: Test A preemergence, barnyardgrass; conditions: 0 to 100 scale (0 no effect, 100 complete control)
In short: as §1

[5] = system: Italian ryegrass (Lolium multiflorum); test: Test B preemergence, Italian ryegrass; conditions: Preemergence, scale 0 to 100
From the text: as §2

[6] = system: cocklebur (Xanthium strumarium); test: Test B preemergence, cocklebur; conditions: scale 0 to 100
From the text: as §2

[7] = system: catchweed bedstraw (Galium aparine); test: Test B preemergence, catchweed bedstraw; conditions: scale 0 to 100
From the text: as §2

[8] = system: woolly cupgrass (Eriochloa villosa); test: Test B preemergence, woolly cupgrass; conditions: scale 0 to 100
From the text: as §2

[9] = system: large crabgrass (Digitaria sanguinalis); test: Test A preemergence, large crabgrass; conditions: 0 to 100 scale (0 no effect, 100 complete control)
In short: as §1

[10] = system: giant foxtail (Setaria faberi); test: Test A postemergence, giant foxtail; conditions: 0 to 100 scale (0 no effect, 100 complete control)
In short: as §1

[11] = system: umbrella sedge (Cyperus difformis); test: Test B flooded paddy test, umbrella sedge; conditions: Flood, scale 0 to 100
In short: (§3)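 Rice, umbrella sedge, ducksalad and barnyardgrass at 2-leaf stage; pots flooded to 3 cm, compounds applied into paddy water, depth held throughout. Greenhouse 13 to 15 days, then visual rating vs untreated controls on 0–100 scale (0 no effect, 100 complete control); dash means no test result.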

[12] = system: barnyardgrass (Echinochloa crus-galli); test: Test B flooded paddy test, barnyardgrass; conditions: Flood
In short: as §3

[13] = system: wheat (Triticum aestivum); test: Test B preemergence, wheat; conditions: Preemergence, scale 0 to 100
From the text: as §2

[14] = system: pigweed (Amaranthus retroflexus); test: Test A preemergence, pigweed; conditions: 0 to 100 scale (0 no effect, 100 complete control)
In short: as §1

corn (Zea mays) [15] = test: Test A postemergence, corn; conditions: 0 to 100 scale (0 no effect, 100 complete control)
In short: as §1

[16] = system: Surinam grass (Brachiaria decumbens); test: Test B preemergence, Surinam grass; conditions: Preemergence, scale 0 to 100
From the text: as §2

[17] = system: wheat (Triticum aestivum); test: Test A postemergence, wheat; conditions: 0 to 100 scale (0 no effect, 100 complete control)
In short: as §1

[18] = system: lambsquarters (Chenopodium album); test: Test B preemergence, lambsquarters; conditions: scale 0 to 100
From the text: as §2

[19] = system: nightshade (eastern black nightshade, Solanum ptycanthum); test: Test B preemergence, nightshade; conditions: scale 0 to 100
From the text: as §2

[20] = system: pigweed (Amaranthus retroflexus); test: Test A postemergence, pigweed; conditions: 0 to 100 scale (0 no effect, 100 complete control)
In short: as §1

## CC1(C)CC(S(=O)(=O)Cc2c(C(F)(F)F)nc3n(c2=O)CCCC3)=NO1 [Compound 8, 3-[[(4,5-dihydro-5,5-dimethyl-3-isoxazolyl)sulfonyl]methyl]-6,7,8,9-tetrahydro-2-(trifluoromethyl)-4H-pyrido[1,2-α]pyrimidin-4-one]
Corn (Zea mays) [1]; 125 g ai/ha
  Plant response rating, Corn: 0
Corn (Zea mays) [1]; 500 g ai/ha
  Plant response rating, Corn: 20
[2]; 16 g ai/ha
  Plant response rating, Bermudagrass: 100
[2]; 31 g ai/ha
  Plant response rating, Bermudagrass: 100
[2]; 62 g ai/ha
  Plant response rating, Bermudagrass: 100
[2]; 125 g ai/ha
  Plant response rating, Bermudagrass: 100
[3]; 125 g ai/ha
  Plant response rating, Velvetleaf: 50
[3]; 500 g ai/ha
  Plant response rating, Velvetleaf: 70
[4]; 125 g ai/ha
  Plant response rating, Barnyardgrass: 90
[4]; 500 g ai/ha
  Plant response rating, Barnyardgrass: 90
[5]; 16 g ai/ha
  Plant response rating, Ryegrass, Italian: 0
[5]; 31 g ai/ha
  Plant response rating, Ryegrass, Italian: 30
[5]; 62 g ai/ha
  Plant response rating, Ryegrass, Italian: 35
[5]; 125 g ai/ha
  Plant response rating, Ryegrass, Italian: 100
[6]; 16 g ai/ha
  Plant response rating, Cocklebur: 0
[6]; 31 g ai/ha
  Plant response rating, Cocklebur: 0
[6]; 62 g ai/ha
  Plant response rating, Cocklebur: 0
[6]; 125 g ai/ha
  Plant response rating, Cocklebur: 0
[7]; 16 g ai/ha
  Plant response rating, Galium: 0
[7]; 31 g ai/ha
  Plant response rating, Galium: 0
[7]; 62 g ai/ha
  Plant response rating, Galium: 100
[7]; 125 g ai/ha
  Plant response rating, Galium: 100
[8]; 16 g ai/ha
  Plant response rating, Cupgrass, Woolly: 85
[8]; 31 g ai/ha
  Plant response rating, Cupgrass, Woolly: 95
[8]; 62 g ai/ha
  Plant response rating, Cupgrass, Woolly: 95
[8]; 125 g ai/ha
  Plant response rating, Cupgrass, Woolly: 100
[9]; 125 g ai/ha
  Plant response rating, Crabgrass, Large: 90
[9]; 500 g ai/ha
  Plant response rating, Crabgrass, Large: 100
[10]; 125 g ai/ha
  Plant response rating, Foxtail, Giant: 70
[10]; 500 g ai/ha
  Plant response rating, Foxtail, Giant: 90
[11]; 62 g ai/ha
  Plant response rating, Sedge, Umbrella: 0
[11]; 250 g ai/ha
  Plant response rating, Sedge, Umbrella: 20
[12]; 62 g ai/ha, scale 0 to 100
  Plant response rating, Barnyardgrass: 0
[12]; 250 g ai/ha, scale 0 to 100 (0 no effect, 100 complete control)
  Plant response rating, Barnyardgrass: 0
[13]; 16 g ai/ha
  Plant response rating, Wheat: 0
[13]; 31 g ai/ha
  Plant response rating, Wheat: 0
[13]; 62 g ai/ha
  Plant response rating, Wheat: 0
[13]; 125 g ai/ha
  Plant response rating, Wheat: 40
[14]; 125 g ai/ha
  Plant response rating, Pigweed: 30
[14]; 500 g ai/ha
  Plant response rating, Pigweed: 100
Corn (Zea mays) [15]; 125 g ai/ha
  Plant response rating, Corn: 0
Corn (Zea mays) [15]; 500 g ai/ha
  Plant response rating, Corn: 60
[16]; 16 g ai/ha
  Plant response rating, Surinam Grass: 65
[16]; 31 g ai/ha
  Plant response rating, Surinam Grass: 95
[16]; 62 g ai/ha
  Plant response rating, Surinam Grass: 100
[16]; 125 g ai/ha
  Plant response rating, Surinam Grass: 100
[17]; 125 g ai/ha
  Plant response rating, Wheat: 20
[17]; 500 g ai/ha
  Plant response rating, Wheat: 60
[18]; 16 g ai/ha
  Plant response rating, Lambsquarters: 55
[18]; 31 g ai/ha
  Plant response rating, Lambsquarters: 98
[18]; 62 g ai/ha
  Plant response rating, Lambsquarters: 100
[18]; 125 g ai/ha
  Plant response rating, Lambsquarters: 100
[19]; 16 g ai/ha
  Plant response rating, Nightshade: 0
[19]; 31 g ai/ha
  Plant response rating, Nightshade: 65
[19]; 62 g ai/ha
  Plant response rating, Nightshade: 75
[19]; 125 g ai/ha
  Plant response rating, Nightshade: 98
[20]; 125 g ai/ha
  Plant response rating, Pigweed: 10
[20]; 500 g ai/ha
  Plant response rating, Pigweed: 60
